# Assay results from US5444056A, “Aminoalkoxyphenyl derivatives, process for their preparation and compositions containing them” (Sanofi, priority 1989, dated 1995).
# Where a name gives a salt, the structure may show the parent alone.
# Legend:
# [1] = system: acceleration of the heart rate induced by isoprenaline (anti-β effect); experiment: Anti-β effect: reduction of isoprenaline-induced acceleration of the heart rate in anesthetized atropinized dog; type: in vivo; parameters: key to Anti-β effect: +: for a reduction <50%; ++: for a reduction ≥50%; +++: for an almost complete reduction
# Method: The aim of this test is to determine the capacity of the compounds of the invention to reduce the increase in blood pressure induced by epinephrine (anti-αeffect) and the acceleration of the heart rate induced by isoprenaline (anti-βeffect) in the dog previously anesthetized with pentobarbital and atropinized.
# (§1) First, are determined for each dog the dose of epinephrine (between 3 and 10 μg/kg) which causes a reproducible increase in arterial blood pressure of about 133.10^2 Pa and the dose of isoprenaline (1 to 2 μg/kg) which causes a reproducible increase in the heart rate of about 70 beats/minute. The doses of epinephrine and isoprenaline thus determined are injected alternatively every ten minutes and after the two consecutive reference responses have been obtained, a quantity of the test compound is administered by the intravenous route.
# The percentage reduction of the acceleration of the heart rate caused by the test compound compared with the reference tachycardia previously measured (about 70 beats) is recorded.
# In both cases, the results of the reduction in arterial pressure and heart rate are expressed as follows: […]
# [2] = system: increase in blood pressure induced by epinephrine (anti-α effect); experiment: Anti-α effect: reduction of epinephrine-induced increase in blood pressure in anesthetized atropinized dog; type: in vivo; parameters: key: +: for a reduction <50%; ++: for a reduction ≥50%; +++: for an almost complete reduction
# Method: as §1, with “The aim of this test is to determine the capacity of the compounds of the invention to reduce the increase in blood pressure induced by epinephrine (anti-αeffect) and the acceleration of the heart rate induced by isoprenaline (anti-βeffect) in the dog previously anesthetized with pentobarbital and atropinized. First,” for “First,”, “route. The percentage reduction of the hypertension caused by the test compound in comparison with the reference hypertension previously obtained (about 100 mm Hg) is recorded. In both cases, the results of the reduction in arterial pressure and heart rate are expressed as follows: […]” for “route.”
# [3] = system: contractile response to potassium-induced depolarization on isolated rat aorta; experiment: Calcium inhibitory properties: antagonism of contractile response to potassium-induced depolarization on isolated rat aorta; parameters: species or system rat (male Wistar); details: percent of maximal contraction before incubation, 60 min
# Description: It is well established that the depolarization of a smooth muscle membrane by potassium makes the latter permeable to extracellular calcium and induces muscle contraction. Consequently, the measurement of inhibition of the contractile response to depolarization by potassium or the measurement of relaxation of the tonic contraction on potassium depolarization can provide an evaluation of the potency of a compound as an inhibitor of the membrane permeability to Ca^++ ions. The technique used is the following: The aorta is removed from male Wistar rats weighing about 300 g and cut into strips approximately 40 mm long and 3 mm wide. These fragments are placed in a 25 ml isolated organ bath containing modified Krebs-bicarbonate solution (112 mM NaCL; 5 mM KCl; 25 mM NaHCO3; 1 mM KH2 PO4; 1.2 mM MgSO4; 2.5 mM CaCl2; 11.5 mM glucose, made up to 1000 ml with distilled water) maintained at 37° C. and through which a stream of carbon dioxide is passed. The preparation is connected to a force microsensor and the contractile response is recorded after amplification on a recorder. A tension of 2g is applied to the preparation. This latter is maintained in the modified Krebs-bicarbonate solution for 60 minutes, and then contractions are induced by replacing the Krebsbi-carbonate solution by a Krebs-potassium solution (17 mM NaCl; 100 mM KCl; 25 mM NaHCO3; 1 mM KH2 PO4; 1.2 mM MgSO4; 2.5 mM CaCl2; 11.5 mM glucose; made up to 1000 ml with distilled water). When the contractile response of the preparation has become reproducible, a given amount of the compound of the invention is introduced into the bath. Sixty minutes later a new spasm is induced by potassium depolarization. The results obtained on the aorta under investigation are then expressed in percent of the maximal contractional effect before incubation with the test substance. As examples, the following results were obtained, the compounds of formula (1) being in the form of the free base, the hydrochloride, oxalate or fumarate.
Compound,"% maximal contractional effect ([3]; 10^-8 M, 0.01 µM)","% maximal contractional effect ([3]; 10^-9 M, 0.001 µM)","% maximal contractional effect ([3]; 10^-7 M, 0.1 µM)","% maximal contractional effect ([3]; 10^-10 M, 0.0001 µM)",other results
"2-isopropyl 8-methyl 1-{4-[3-(6,7-dimethoxy 1,2,3,4-tetrahydro N-isoquinolin-2-yl)propoxy]benzenesulfonyl}indolizine hydrogen oxalate [Ex. 2]",–,–,–,–,"Anti-β effect ([1]; intravenous, 0,065 mg/kg): +++; Anti-α effect ([2]; intravenous, 0,065 mg/kg): +++"
"COc1ccc(CCN(C)CCCOc2ccc(S(=O)(=O)c3c(C(C)C)cn4ccccc34)cc2)cc1OC [C, reference compound]","40,1%","81,7%",–,–,"Anti-β effect ([1]; intravenous, 0,1 mg/kg): +++; Anti-α effect ([2]; intravenous, 0,1 mg/kg): +++"
"CCCCc1oc2ccc(Br)cc2c1S(=O)(=O)c1ccc(OCCCN(C)CCc2ccc(OC)c(OC)c2)cc1 [Ex. 8, 5-bromo 2-n-butyl 3-{4[3-(N-methyl N-3,4-dimethoxy-β-phenethylamino)propoxy]benzenesulfonyl}benzofuran hydrogen oxalate]",–,–,"79,4%",–,"Anti-β effect ([1]; intravenous, 1,5 mg/kg): +++; % maximal contractional effect ([3]; 10^-6 M, 1 µM): 61,5%; Anti-α effect ([2]; intravenous, 1,5 mg/kg): +++"
"COc1ccc(CCN(C)CCCOc2ccc(S(=O)(=O)c3c(C(C)C)c4ccccc4n3CCCN(C)CCc3ccc(OC)c(OC)c3)cc2)cc1OC [Ex. 10, 2-{4-[3-(N-methyl N-3,4-dimethoxy-β-phenethylamino)propoxy]benzenesulfonyl} 1-[3-(N-methyl N-3,4-dimethoxy-β-phenethylamino)propyl] 3-isopropyl indole dioxalate]","90,2%",–,"78,9%",–,"Anti-β effect ([1]; intravenous, 4,9 mg/kg): +++; Anti-α effect ([2]; intravenous, 4,9 mg/kg): +++"
"COc1ccc(CCN(C)CCCOc2ccc(S(=O)(=O)c3c(C(C)C)n(C)c4ccc(Cl)cc34)cc2)cc1OC [Ex. 13, 3-{4-[3-(N-methyl N-3,4-dimethoxy-β-phenethylamino)propoxy]benzenesulfonyl} 5-chloro 2-isopropyl 1-methylindole]","79,2%",–,"35,5%",–,"Anti-α effect ([2]; intravenous, 0,6 mg/kg): +++"
"COc1ccc(CCN(C)CCCOc2ccc(S(=O)(=O)c3c(C(C)C)cn4cccc(C)c34)cc2)cc1OC [Ex. 15, 2-isopropyl 8-methyl 1-{4-[3-(N-methyl N-3,4-dimethoxy-β-phenethylamino)propoxy]benzenesulfonyl}indolizine hydrogen oxalate]","11,1%","41,0%",–,"85,2%","inhibition in vivo at 0.013 mg/kg ([1]; Canis lupus familiaris, intravenous, 0,013 mg/kg): < 50%; Anti-α effect ([2]; intravenous, 0,013 mg/kg): ++ (for a reduction ≥50%)"
"CCCCN(CCCC)CCCOc1ccc(S(=O)(=O)c2c(C(C)C)n(C)c3ccc(Cl)cc23)cc1.O=C(O)C(=O)O [Ex. 44, 1-methyl 2-isopropyl 3-{4-[3-(di-n-butylamino)propoxy]benzenesulfonyl} 5-chloro indole hydrogen oxalate]","85,7%",–,"69,6%",–,"Anti-α effect ([2]; intravenous, 1,2 mg/kg): ++ (for a reduction ≥50%)"
"CC(C)c1c(S(=O)(=O)c2ccc(OCCCN(C)C3CCCc4ccccc43)cc2)c2cc(Cl)ccc2n1C.O=C(O)C(=O)O (centres unmarked) [Ex. 47, 1-methyl 2-isopropyl 3-{4-[3-(N-methyl N-1,2,3,4-tetrahydronaphth-1-ylamino)propoxy]benzenesulfonyl} 5-chloro indole hydrogen oxalate]","88,3%","91,4%","75,3%",–,"Anti-α effect ([2]; intravenous, 6,6 mg/kg): ++ (for a reduction ≥50%)"
"CCCCN(CCCC)CCCOc1ccc(S(=O)(=O)c2c(C)nn3cccc(C)c23)cc1.O=C(O)C(=O)O [Ex. 49, 3-{4-[3-(di-n-butylamino)propoxy]benzenesulfonyl} 2,4-dimethyl pyrazolo[1,5-a]pyridine hydrogen oxalate]","62,9%","75,7%",–,–,"Anti-α effect ([2]; intravenous, 0,28 mg/kg): + (for a reduction <50%)"
"COc1ccc(CCN(C)CCCOc2ccc(S(=O)(=O)c3c(C(C)C)nn4c(C)cccc34)cc2)cc1OC [Ex. 50, 3-{4-[3-(N-methyl N-3,4-dimethoxy-β-phenethylamino)propoxy]benzenesulfonyl} 2-isopropyl 7-methyl pyrazolo[1,5-a]pyridine hydrogen oxalate]","29,1%","65,6%",–,"86,3%","Anti-β effect ([1]; intravenous, 0,13 mg/kg): +++; Anti-α effect ([2]; intravenous, 0,13 mg/kg): +++"
"COc1ccc(CCN(C)CCCOc2ccc(S(=O)(=O)c3c(C(C)C)c4cccc(C)c4n3C)cc2)cc1OC [Ex. 55, 2-{4-[3-(N-methyl N-3,4-dimethoxy-β-phenethylamino)propoxy]benzenesulfonyl} 3-isopropyl 1,7-dimethyl indole hydrogen oxalate]","56,4%",79%,"45,8%","85,7%","Anti-β effect ([1]; intravenous, 0,07 mg/kg): +++; Anti-α effect ([2]; intravenous, 0,07 mg/kg): +++"
"COc1ccc(CCN(C)CCCOc2ccc([S+]([O-])c3c(C(C)C)c4cc(Cl)ccc4n3C)cc2)cc1OC (stereo not drawn) [Ex. 56, (5-chloro 3-isopropyl 1-methylindo-2yl)4-[3-(N-methyl N-3,4-dimethoxy-β-phenethylamino)propoxy]phenyl sulfoxide hydrogen oxalate]","61,3%","78,6%","19,8%",–,"Anti-α effect ([2]; intravenous, 0,67 mg/kg): +++"
"CCCCN(CCCC)CCCOc1ccc(S(=O)(=O)c2c(C(C)C)c3cc(OC)ccc3n2C)cc1.O=C(O)C(=O)O [Ex. 64, 2-{4-[3-(di-n-butylamino)propoxy]benzenesulfonyl} 3-isopropyl 5-methoxy 1-methyl indole hydrogen oxalate]","72,6%","93,9%","69,3%",–,"Anti-α effect ([2]; intravenous, 0,5 mg/kg): +++"
"CCCCN(CCCC)CCCOc1ccc(S(=O)(=O)c2c(C(C)C)cn3cccc(C)c23)cc1 [Ex. 75, 1-{4-[3-(di-n-butylamino)propoxy]benzenesulfonyl} 2-isopropyl 8-methyl indolizine]","9,7%","51,4%",–,"83,8%","Anti-α effect ([2]; intravenous, 0,02 mg/kg): ++ (for a reduction ≥50%)"
"COc1ccc(CCN(C)CCCOc2ccc(S(=O)(=O)c3c(C(C)C)cn4c(C)cccc34)cc2)cc1OC [Ex. 79, 2-Isopropyl 5-methyl 1-{4-[3-(N-methyl N-3,4-dimethoxy-β-phenethylamino)propoxy]benzenesulfonyl}indolizine]","29,8%","77,9%",–,"87,3%","Anti-α effect ([2]; intravenous, 0,07 mg/kg): +++"
